Holding throughout (assay type): cell-based, Human
The subject of assay [1] is SKOV3 (Ovarian adenocarcinoma). In words: In vitro cytotoxicity, microculture tetrazolium (MTT) assay, SKOV3. The following applies: SKOV3 ovarian adenocarcinoma, 48 h with compound, further 48 h, MTT, Table 1. The method in brief: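 Cells plated overnight, then exposed to compound (1:3 dilutions, 100 μM to 1.7 nM, quadruplicate) 48 h at 37 °C, followed by 48 h in fresh medium. MTT 4 h, formazan extracted in DMSO/Sorensen's buffer pH 10.5, A570; four-parameter logistic fit on 0–100% survival scale.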

In assay [2] the test system is HT 29 (Colon adenocarcinoma). In words: In vitro cytotoxicity, microculture tetrazolium (MTT) assay, HT29. As to conditions: further 48 h, Table 1. The method in brief:
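HT29 cells exposed to compound (1:3 series, 100 μM to 1.7 nM, quadruplicate) for 48 h at 37 °C, then 48 h in fresh medium. Viability by MTT reduction, formazan absorbance at 570 nm; four-parameter logistic fit on 0-100% survival scale.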

In assay [3] the test system is T47D (Ductal carcinoma of breast). The assay is described as follows: In vitro cytotoxicity, microculture tetrazolium (MTT) assay, T47D. The following applies: 48 h with compound, further 48 h, Table 1. The method in brief: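 Adherent cells (1,500-4,000/well) were exposed to compound in 1:3 dilutions from 100 μM to 1.7 nM, in quadruplicate, for 48 h at 37° C, followed by 48 h in fresh medium. MTT formazan was read at 570 nm, and data were fitted by four-parameter logistic on a 0-100% survival scale.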

The test system of assay [4] is Lox (Melanoma). In words: In vitro cytotoxicity, microculture tetrazolium (MTT) assay, LOX. The following applies: 48 h with compound, further 48 h, Table 1. The method in brief: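 LOX melanoma cells, 1,500–4,000 per well, exposed to compound (1:3 dilutions, 100 μM to 1.7 nM) for 48 h at 37° C., then 48 h in fresh medium. MTT reduction read at 570 nm; four-parameter logistic fit normalized to 0–100% survival.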

The test system of assay [5] is VLB/OV3. The assay is described as follows: Resistance ratio of SKVLB over SKOV3 cytotoxicity (VLB/OV3). The following applies: ratio SKVLB to SKOV3; Table 1; 2880 min. The protocol: The microculture tetrazolium assay was used to test in vitro cytotoxicity. This assay is described in Plumb, J. A. et al., 1989 Cancer Research 49, 4435-4440, which is herein incorporated by reference. The cytotoxicity of compounds towards tumor cells is measured in vitro using the assay. This assay method is based upon the ability of live, but not dead cells to reduce the yellow water soluble dye 3-(4,5-dimethylthiazol-2-yl)-2,5-diphenyltetrazolium bromide (MTT) to its water insoluble purple formazan product.
SKOV3 (Ovarian adenocarcinoma)--provided by Dr. V. Ling, Ontario Cancer Institute.
SKVLB (Ovarian; multidrug resistant)--Dr. V. Ling, Ontario Cancer Institute.
For each assay, doxorubicin is included as an inter-assay standard. This allows us to monitor the behaviour of the assay in general, and in particular, to check that the SKVLB line has maintained its resistant phenotype.
Cells are plated out in 100 μl of culture medium in the microtiter plates at a density of around 1,500-4,000 cells per well. The plates are incubated overnight to allow the cells to become adherent after which the test compound is added (100 μl of appropriate dilution per well). The cells are incubated with test compound at 37° C. for 48 h after which the compound is replaced with fresh medium. After a further 48 h incubation at 37° C., 50 μl of MTT solution (2 mg/ml) is added to each well. The plates are incubated in the dark for 4 h at 37° C. after which the medium is removed. The MTT formazan product is extracted from the cells by the addition of 200 μl DMSO followed by 50 μl of Sorensen's buffer. The plates are shaken briefly and the absorbance at 570 nm is read using a Molecular Devices UV max plate reader. Curves are fit to the MTT assay data using a four parameter logistic equation, and the data are normalized to fit a 0% to 100% survival scale.

The subject of assay [6] is SKVLB (Ovarian; multidrug resistant). In words: In vitro cytotoxicity, microculture tetrazolium (MTT) assay, SKVLB. The following applies: Homo sapiens; SKVLB multidrug resistant ovarian; 48 h with compound, further 48 h, MTT; Table 1. In a few lines: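 Multidrug-resistant SKVLB ovarian cells, 1,500–4,000 per well, exposed to compound (1:3 dilutions, 100 μM to 1.7 nM, quadruplicate) for 48 h at 37 °C, then 48 h in fresh medium. Viability by MTT reduction, formazan read at 570 nm; four-parameter logistic fit on a 0–100% survival scale.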

[7] abbreviates: Homo sapiens, HT-29, 48 h with compound.

Broadly, the IC50 is the concentration at which inhibition is half-maximal.

The structures appear in SMILES notation.

Turning to `CC(=NO)[C@@H]1CC2=C(C(=O)c3ccccc3C2=O)[C@@H](O[C@H]2C[C@H](NC(=O)C(F)(F)F)[C@H](O)[C@H](C)O2)O1` [BCH2115, (1'S, 1R, 3S)-3 (oximoethyl)-5,10-dioxo-1 (2,3,6-trideoxy-3-trifluoroacetamido-L-lyxohexopyranose)-3,4,5,10-tetrahydro-1H-naphtho-(2,3-c)-pyran], the IC50 in assay [1] stood at 2300 nM; in assay [2] (48 h with compound), 5600 nM; in assay [3] it was 5.3 µM; in assay [4] it was 4000 nM. Besides, the VLB/OV3 in assay [5] is on record as over 50.

For `COP(=O)(CC(=O)[C@H]1CC2=C(C(=O)c3ccccc3C2=O)[C@H](O[C@H]2C[C@H](NC(=O)C(F)(F)F)[C@H](O)[C@H](C)O2)O1)OC` [BCH1690, (1'S,1S,3R)-1-(2',3',6'-trideoxy-3'-trifluoroacetamido-L-lyxohexopyranose)-3-dimethylphosphonoacetyl-5,10-dioxo-3,4,5-10-tetrahydro-1H-naphtho-[2,3-c]-pyran], the VLB/OV3 in assay [5] came to 7.70.

Turning to `CC(=O)C1CC2=C(C(=O)c3ccccc3C2=O)C(OCC2CCN(C(=O)OC(C)(C)C)CC2)O1.Cl` (racemic) [BCH2068, Methyl-(1-O-[N-BOC-4-piperidine-methanol]-5,10-dioxo-3,4,5,10-tetrahydronaphthaleno-[2,3-c]pyran-3-yl) ketone, racemic, hydrochloride], the VLB/OV3 in assay [5] is 1.

`CC(=O)OC1C(C)OC(OC2OC(C(C)=O)CC3=C2C(=O)c2ccccc2C3=O)C(I)C1OC(C)=O` (mixture of isomers) [BCH2065, (1'S,1R,1S) and (1'S,1S,3R)-methyl-(1-[2',6'-dideoxy-3',4'-diacetoxy-2'-iodo-L-arabino-hexopyranose]-5,10-dioxo-3,4,5,10-tetrahydronaphtho-[2,3-c]-pyran-3-yl) ketone]: the VLB/OV3 in assay [5] was determined as 4.

On to `CC[C@H]1CC2=C(C(=O)c3ccccc3C2=O)[C@H](O[C@H]2C[C@H](NC(=O)C(F)(F)F)[C@H](O)[C@H](C)O2)O1` [BCH2020, (1'S, 1S, 3S)-5,10-dioxo-3-ethyl-1-(2',3',6'-trideoxy-3'-trifluoroacetamido-L-lyxohexopyranose)-3,4,5,10-tetrahydro-1H-naphtho-[2,3-c]-pyran], for which the IC50 in assay [1] (Homo sapiens, SK-OV-3) was determined as 11200 nM; in assay [6] it was 25.9 µM; in assay [2] (setting [7]) it was 19100 nM; in assay [3] (Homo sapiens) it was 9.42 µM; in assay [4] (Homo sapiens), 5450 nM.

For `CC(=O)[C@@H]1CC2=C(C(=O)c3ccccc3C2=O)[C@@H](O[C@@H]2O[C@@H](C)[C@@H](O)[C@@H](O)[C@H]2I)O1` [BCH2015, (1'S,1R,3S)-methyl-(1-[2',6'-dideoxy-3',4'-dihydroxy-2'-iodo-L-lyxohexopyranose]-5,10-dioxo-3,4,5,10-tetrahydronaphtho[2,3-c]-pyran-3-yl) ketone], the IC50 in assay [1] (Homo sapiens, SK-OV-3) was 367 nM; in assay [6], 1.17 µM; in assay [2] (setting [7]), 557 nM; in assay [3] (Homo sapiens), 0.909 µM; in assay [4] (Homo sapiens), 1090 nM.

Regarding `CC(C)C(=O)[C@@H]1CC2=C(C(=O)c3ccccc3C2=O)[C@@H](O[C@H]2C[C@H](NC(=O)C(F)(F)F)[C@H](O)[C@H](C)O2)O1` [BCH2112, (1'S, 1R, 3S)-isopropyl-[1-(2',3',6'-trideoxy-3'-trifluoroacetamido-L-lyxohexopyranose)-5,10-dioxo-3,4,5,10-tetrahydro-1H-naphtho-[2,3-c]-pyranyl]-ketone], the IC50 in assay [1] (Homo sapiens, SK-OV-3) was found to be 104 nM; in assay [6] it was 1.7 µM; in assay [2] (setting [7]) it was 65 nM; in assay [3] (Homo sapiens) it was 0.27 µM; in assay [4] (Homo sapiens), 210 nM.

Turning to `CC(=O)[C@@H]1CC2=C(C(=O)c3ccc(O)cc3C2=O)[C@@H](O[C@H]2C[C@H](NC(=O)C(F)(F)F)[C@H](O)[C@H](C)O2)O1` [BCH1181, (1'S,1R,3S)-Methyl (5,10-dioxo-1-(2',3',6'-trideoxy-3'-trifluoroacetamido-L-lyxohexopyranose)-7-hydroxy-3,4,5, 10-tetrahydro[2,3-C]pyran-3-yl) ketone], the IC50 came to 2260 nM in assay [1] (Homo sapiens, SK-OV-3); 8.48 µM in assay [6]; 536 nM in assay [2] (setting [7]); 9.23 µM in assay [3] (Homo sapiens); 3070 nM in assay [4] (Homo sapiens).

For the compound `COC(=O)[C@H](CC(C)C)NC(=O)[C@H](CO[C@H]1O[C@H](C(C)=O)CC2=C1C(=O)c1ccccc1C2=O)NC(=O)OC(C)(C)C` [BCH1998, (1S,2'S,3S,5'S)-Methyl-(1-O-[N-BOC-Serine-Leucine-Me ester]-5,10-dioxo-3,4,5,10-tetrahydro-1-H-naphtho[2,3-c]pyran-3-yl) ketone], the IC50 in assay [1] (Homo sapiens, SK-OV-3) turned out to be 125 nM; in assay [6], 1.66 µM; in assay [2] (setting [7]), 36.3 nM; in assay [3] (Homo sapiens) it was 0.114 µM; in assay [4] (Homo sapiens) it was 63.1 nM.

`CC(=O)[C@@]1(C)CC2=C(C(=O)c3ccccc3C2=O)[C@H](O[C@H]2C[C@H](NC(=O)C(F)(F)F)[C@H](O)[C@H](C)O2)O1` [BCH2082, (1'S, 1S, 3R)-1-(3'-trifluoroacetamido-2',3',6'-trideoxy-L-lyxohexopyranose)-3-acetyl-3-methyl-5,10-dioxo-4,5,10-trihydro-1H-naphtho-[2,3-c]-pyran]: the IC50 stood at 1800 nM in assay [1] (Homo sapiens, SK-OV-3); 5.6 µM in assay [6]; 2600 nM in assay [2] (setting [7]); 4 µM in assay [3] (Homo sapiens); 1600 nM in assay [4] (Homo sapiens).

Take `CC(=O)[C@H]1CC2=C(C(=O)c3ccccc3C2=O)[C@H](O[C@H]2C[C@H](NC(=O)C(F)(F)F)[C@H](Br)[C@H](C)O2)O1` [BCH2047, (1S,3R,1'S)-Methyl-(1-[2',3',4',6'-tetradeoxy-3'-trifluoroacetamido-4'-bromo-L-lyxohexopyranose]-5,10-dioxo-3,4,5,10-tetrahydronaphthaleno-[2,3-c]pyran-3-yl) ketone]: the IC50 was determined as 17 nM in assay [1] (Homo sapiens, SK-OV-3); 0.523 µM in assay [6]; 4.1 nM in assay [2] (setting [7]); 0.151 µM in assay [3] (Homo sapiens); 21 nM in assay [4] (Homo sapiens).

Regarding `CC(C)[C@@H]1CC2=C(C(=O)c3ccccc3C2=O)[C@@H](O[C@H]2C[C@H](NC(=O)C(F)(F)F)[C@H](O)[C@H](C)O2)O1` [BCH2053, (1'S, 1R, 3S)-5,10-dioxo-3-isopropyl-1-(2',3',6'-trideoxy-3'-trifluoroacetamido-L-lyxohexopyranose)-3,4,5,10-tetrahydro-1H-naphtho-[2,3-c]-pyran], the IC50 stood at 4730 nM in assay [1] (Homo sapiens, SK-OV-3); 21.2 µM in assay [6]; 14000 nM in assay [2] (setting [7]); 12.3 µM in assay [3] (Homo sapiens); 3250 nM in assay [4] (Homo sapiens).

As to `CC(=O)C1CC2=C(C(=O)c3ccccc3C2=O)C(OC2CC(NC(=O)C(F)(F)F)C(O)C(C)O2)O1` [BCH2144, (1R, 3S)-1-(2',3',6'-trideoxy-3'-trifluoroacetamido-4'-hydroxy-1,5-dihydro-L-lyxohexopyranose-2-yl)-5,10-dioxo-3,4,5,10-tetrahydro-1H-naphtho-[2,3-c] pyran], the VLB/OV3 in assay [5] is given as 0.75.

These data come from patent US5606037A, “Processes antineoplastic heteronaphthoquinones” (BioChem Pharma Inc., priority 1995, dated 1997).
